Measurements taken from article PMC4301037, “Identification and Structure–Function Analysis of Subfamily Selective G Protein-Coupled Receptor Kinase Inhibitors” (ACS Chemical Biology, 2014).

biological target: T1, bovine GRK5 (Bos taurus, UniProt P43249); assay: Primary DSF inhibitor screen, GRK5; assay type: binding; conditions: 10 μM compound, 2 μM kinase, relative to DMSO control
T1 construct: when using full-length kinases as the receptor[37] instead of isolated kinase domains; made in house
T1 sequence (P43249 whole entry, the tested form may be a part): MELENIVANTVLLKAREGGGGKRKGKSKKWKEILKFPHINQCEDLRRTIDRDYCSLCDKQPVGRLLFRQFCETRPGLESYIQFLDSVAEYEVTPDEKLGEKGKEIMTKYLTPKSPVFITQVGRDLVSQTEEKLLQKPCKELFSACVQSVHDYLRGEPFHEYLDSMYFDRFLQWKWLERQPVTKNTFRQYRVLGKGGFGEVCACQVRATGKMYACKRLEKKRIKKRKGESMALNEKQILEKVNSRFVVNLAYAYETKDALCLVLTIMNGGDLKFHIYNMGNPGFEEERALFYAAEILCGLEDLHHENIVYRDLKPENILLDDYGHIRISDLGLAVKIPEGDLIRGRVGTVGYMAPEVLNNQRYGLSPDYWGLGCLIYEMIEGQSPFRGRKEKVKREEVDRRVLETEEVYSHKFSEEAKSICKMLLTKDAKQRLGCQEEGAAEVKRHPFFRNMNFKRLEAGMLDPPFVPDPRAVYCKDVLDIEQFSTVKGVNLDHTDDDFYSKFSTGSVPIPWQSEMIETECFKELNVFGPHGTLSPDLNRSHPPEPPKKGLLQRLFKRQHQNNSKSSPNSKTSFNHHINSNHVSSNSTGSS

Question: `COC(=O)[C@@]1(O)C[C@H]2O[C@]1(C)n1c3ccccc3c3c4c(c5c6ccccc6n2c5c31)C(=O)NC4` [K252a] was tested. Which “ΔTm, primary screen, GRK5” value did it give?
Answer: 9.89 °C

Question: `CS(=O)(=O)c1cccc(CNc2nc(Nc3ccc4c(c3)CCC(=O)N4)ncc2C(F)(F)F)c1` [PF 573228] was tested. Which “ΔTm, primary screen, GRK5” value did it give?
Answer: 2.67 °C

Question: How did the “ΔTm, primary screen, GRK5” value turn out when Wee1/Chk1 inhibitor was run?
Answer: 4.89 °C

Question: For `NC1=NC(=O)C(=C2CCNC(=O)c3[nH]c(Br)cc32)N1` [10Z-Hymenialdisine, 4-(2-Amino-4-oxo-2-imidazolidin-5-ylidene)-2-bromo-4,5,6,7-tetrahydropyrrolo[2,3-c]azepin-8-one], which “ΔTm, primary screen, GRK5” value is on record?
Answer: 4.5 °C

Question: How did the “ΔTm, primary screen, GRK5” value turn out when `NC(=O)Nc1sc(-c2ccccc2)cc1C(N)=O` [IKK-2 Inhibitor VI] was run?
Answer: 2.57 °C

Question: `Cl.Cn1cc(C2=C(c3c4n(c5ccccc35)CCC(CN)C4)C(=O)NC2=O)c2ccccc21` (centres unmarked) [BIM 10, Bisindolylmaleimide X, HCl] was tested. Which “ΔTm, primary screen, GRK5” value did it give?
Answer: 6.19 °C

Question: With Cdk1/2 Inhibitor III as the compound, how does the “ΔTm, primary screen, GRK5” value read?
Answer: 3.6 °C

Question: With `O` [Water] as the compound, how does the “ΔTm, primary screen, GRK5” value read?
Answer: 2.01 °C

Question: With `Cc1cc(C=C2C(=O)C=CC2=O)cc(C)c1O` [TX-1918, 2-((3,5-dimethyl-4-hydroxyphenyl)-methylene)-4-cyclopentene-1,3-dione] as the compound, how does the “ΔTm, primary screen, GRK5” value read?
Answer: 2.21 °C

Question: `O=C1NC(=O)C(c2cn(CCCn3ccnc3)c3ccccc23)=C1Nc1ccccc1` [PKC beta inhibitor] was tested. Which “ΔTm, primary screen, GRK5” value did it give?
Answer: 3.13 °C

Question: `Cn1cc(/C=C2\C(=O)Nc3ccc(S(N)(=O)=O)cc32)c2ccccc21` [Syk Inhibitor] was tested. Which “ΔTm, primary screen, GRK5” value did it give?
Answer: 3.6 °C

Question: `Nc1nc(Nc2ccc(S(N)(=O)=O)cc2)nn1C(=O)c1c(F)cccc1F` [Aurora/Cdk Inhibitor] was tested. Which “ΔTm, primary screen, GRK5” value did it give?
Answer: 5.41 °C

Question: Which “ΔTm, primary screen, GRK5” value does the source give for IGF-1R Inhibitor II here?
Answer: 2.42 °C

Question: `Nc1ncnc2c1c(I)cn2[C@@H]1O[C@H](CO)[C@@H](O)[C@H]1O` [5-Iodotubercidin, 4-Amino-5-iodo-7-(b-D-ribofuranosyl)pyrrolo[2,3-d]pyrimidine] was tested. Which “ΔTm, primary screen, GRK5” value did it give?
Answer: 2.22 °C

Question: With `O=C1NC(=O)/C(=C/c2ccc(-c3nc4ccccc4s3)o2)S1` [BAS 09687195] as the compound, how does the “ΔTm, primary screen, GRK5” value read?
Answer: 2.87 °C

Question: With `Cl.Cl.NCCNc1ncc(C(N)=O)c(Nc2cccc(C(F)(F)F)c2)n1` [Syk Inhibitor II] as the compound, how does the “ΔTm, primary screen, GRK5” value read?
Answer: 2.43 °C

Question: How did the “ΔTm, primary screen, GRK5” value turn out when `O=C1Nc2ccccc2/C1=C\c1cnc[nH]1` [(Z,E)-3-(Imidazol-4-ylmethylene)indolin-2-one] was run?
Answer: 4.8 °C

same assay, conditions: 10 μM compound, 2 μM kinase, relative to DMSO control; read-out: ΔTm, primary screen, GRK5

Question: For `COc1ccc2c(c1)/C(=C/c1cnc[nH]1)C(=O)N2` [SU9516, 3-[1-(3H-Imidazol-4-yl)-meth-(Z)-ylidene]-5-methoxy-1,3-dihydro-indol-2-one], which ΔTm at 10 µM is on record?
Answer: 3.59 °C

Question: `O=c1c(O)c(-c2ccc(O)c(O)c2)oc2cc(O)cc(O)c12` [Quercetin, 3,3',4',5,7-Pentahydroxyflavone] was tested. Which ΔTm at 10 µM did it give?
Answer: 10.6 °C

Question: For `CS(=O)(=O)CCNCc1coc(-c2ccc3ncnc(Nc4ccc(OCc5ccccc5)cc4)c3c2)c1` [GW566221A], which ΔTm at 10 µM is on record?
Answer: 2.58 °C

Question: With `Nc1nccc(C#Cc2cncnc2Nc2ccc(OCc3cccc(F)c3)c(Cl)c2)n1` [GW799251X] as the compound, how does the ΔTm at 10 µM read?
Answer: 4.33 °C

Question: Which ΔTm at 10 µM does the source give for `COc1cc(C)c(N(C)C(=O)CN(C)C)cc1Nc1nc(Nc2cccc(F)c2C(N)=O)c2cc[nH]c2n1` [GSK2219385A] here?
Answer: 3.58 °C

Question: Which ΔTm at 10 µM does the source give for `CCCN1CCCC(c2ccc(Nc3nc(Nc4cc(F)ccc4C(N)=O)c4cc[nH]c4n3)c(OC)c2)C1` (centres unmarked) [GSK1173862A] here?
Answer: 4.75 °C

Question: For `CC(C)[C@H](CO)Nc1nc(Nc2cccc(Cl)c2)c2ncn(C(C)C)c2n1` [Purvalanol A, 2-(1R-Isopropyl-2-hydroxyethylamino)-6-(3-chloroanilino)-9-isopropyl-purine], which ΔTm at 10 µM is on record?
Answer: 6.44 °C

Question: With `NS(=O)(=O)c1ccc(NN=C2C(=O)Nc3ccc(C(=O)NCCCn4ccnc4)cc32)cc1` [GW290597X] as the compound, how does the ΔTm at 10 µM read?
Answer: 3.72 °C

Question: With `COC(=O)Nc1nc2ccc(Oc3ccc(NC(=O)Nc4cccc(C(=O)O)c4)cc3)cc2[nH]1` [GW701427A] as the compound, how does the ΔTm at 10 µM read?
Answer: 3.25 °C

Question: For `Nc1nonc1-c1nc2cnccc2n1C1CC1` [SB-736302], which ΔTm at 10 µM is on record?
Answer: 2.86 °C

Question: With `CS(=O)(=O)CCN(CC#N)Cc1ccc(-c2ccc3ncnc(Nc4ccc(OCc5cccc(F)c5)c(Cl)c4)c3c2)o1` [GW616030X] as the compound, how does the ΔTm at 10 µM read?
Answer: 3.29 °C

Question: `Nc1nc(-c2ccc(F)cc2)c(-c2ccc3ncccc3n2)s1` [GW785804X] was tested. Which ΔTm at 10 µM did it give?
Answer: 3.16 °C

Question: With `CN1CC[C@H](c2c(O)cc(O)c3c(=O)cc(-c4ccccc4Cl)oc23)[C@H](O)C1` [Flavopiridol] as the compound, how does the ΔTm at 10 µM read?
Answer: 4.13 °C

Question: `NS(=O)(=O)c1ccc(N/N=C2\C(=O)Nc3ccc(C(=O)NCCc4c[nH]cn4)cc32)cc1` [GW300660X] was tested. Which ΔTm at 10 µM did it give?
Answer: 3.03 °C

Question: With `CN(C)C(=O)O[C@@H]1CN[C@@H](C#Cc2cc3ncnc(Nc4ccc(OCc5cccc(F)c5)c(Cl)c4)c3s2)C1` [GSK238063A] as the compound, how does the ΔTm at 10 µM read?
Answer: 2.93 °C

Question: `Cn1cc(C2=C(c3ccc(Cl)cc3Cl)C(=O)NC2=O)c2ccccc21` [SB216763] was tested. Which ΔTm at 10 µM did it give?
Answer: 2.78 °C

Question: With `O=C1Nc2ccccc2/C1=C/Nc1ccc2[nH]c(=O)[nH]c2c1` [GW284408X] as the compound, how does the ΔTm at 10 µM read?
Answer: 2.4 °C

Question: Which ΔTm at 10 µM does the source give for `CCS(=O)(=O)c1ccc(OC)c(Nc2ncc(-c3ccccc3Cl)o2)c1` [GW622055X] here?
Answer: 2.14 °C

Question: With `c1ccc(COc2ccc(Nc3ncnc4ccc(-c5ccco5)cc34)cc2)cc1` [GW284372X] as the compound, how does the ΔTm at 10 µM read?
Answer: 3.6 °C

Question: How did the ΔTm at 10 µM turn out when `O=C(Nc1ccc(Oc2ccc3nc(NC(=O)c4ccccc4)[nH]c3c2)cc1)Nc1cc(C(F)(F)F)ccc1F` [GW709042A] was run?
Answer: 3.88 °C

Question: For `COC(=O)Nc1nc2ccc(Sc3ccc(NC(=O)Nc4cc(C(F)(F)F)ccc4F)cc3)cc2[nH]1` [GW607049C], which ΔTm at 10 µM is on record?
Answer: 3.59 °C

Question: For `NS(=O)(=O)c1ccc(Nc2cc(-c3cccc(O)c3)n[nH]2)cc1` [GW831090X], which ΔTm at 10 µM is on record?
Answer: 2.96 °C

Question: For `CCNC(=O)O[C@H]1CN[C@H](C#Cc2cc3ncnc(Nc4ccc(OCc5cccc(F)c5)c(Cl)c4)c3s2)C1` [GSK192082A], which ΔTm at 10 µM is on record?
Answer: 2.97 °C

Question: How did the ΔTm at 10 µM turn out when `Cc1ccc(NC(=O)CC2CC2)cc1-c1ccc(C(=O)NCC2CC2)cc1` [GW796920X] was run?
Answer: 3.82 °C

Question: Which ΔTm at 10 µM does the source give for `O=c1c(-c2ccc(O)cc2)coc2cc(O)cc(O)c12` [Genistein, 4',5,7-Trihydroxyisoflavone] here?
Answer: 2.46 °C

Question: With `CCc1nn2ncccc2c1-c1ccnc(NC2CC2)n1` [GW683768X] as the compound, how does the ΔTm at 10 µM read?
Answer: 2.22 °C

Question: For `COC(=O)Nc1nc2ccc(Oc3ccc(NC(=O)Nc4cccc(Br)c4)cc3)cc2[nH]1` [GW694234A], which ΔTm at 10 µM is on record?
Answer: 4.08 °C

Question: How did the ΔTm at 10 µM turn out when `COC(=O)Nc1nc2ccc(Oc3cccc(NC(=O)Nc4cc(C(F)(F)F)ccc4F)c3)cc2[nH]1` [GW659386A] was run?
Answer: 2.51 °C

Question: For `O=C(Nc1ccc(Oc2ccc3nc(NC(=O)c4ccco4)[nH]c3c2)cc1)Nc1cc(C(F)(F)F)ccc1F` [GW683134A], which ΔTm at 10 µM is on record?
Answer: 2.32 °C

Question: `Cc1cc(O)cc(C)c1/C=C/c1cncc(C(=O)OC(C)(C)C)c1` [GW439255X] was tested. Which ΔTm at 10 µM did it give?
Answer: 2.66 °C

Question: With `C[C@@H](Oc1cc(-n2cnc3ccc(OCC4CCN(C)CC4)cc32)sc1C(N)=O)c1ccccc1C(F)(F)F` [GSK326090A] as the compound, how does the ΔTm at 10 µM read?
Answer: 2.06 °C

Question: For `CC1=C(C(=O)Nc2ccc3[nH]nc(C)c3c2)C(c2ccc(C(F)(F)F)cc2)CC(=O)N1` (centres unmarked) [GSK466314A], which ΔTm at 10 µM is on record?
Answer: 3.54 °C

Question: `COc1cc(N2CCN(C(C)C)CC2)ccc1Nc1nc(Nc2ccc(F)cc2C(N)=O)c2cc[nH]c2n1` [GSK1220512A] was tested. Which ΔTm at 10 µM did it give?
Answer: 3.05 °C

Question: Which ΔTm at 10 µM does the source give for `Fc1cccc(COc2ccc(Nc3ncnc4sc(-c5ccco5)cc34)cc2Cl)c1` [GSK969786A] here?
Answer: 2.11 °C

same assay, conditions: read-out: ΔTm, primary screen, GRK5, 10 μM compound, 2 μM kinase, relative to DMSO control

Question: With `c1cc(-c2cnn3nc(N4CCOCC4)ccc23)nc(NC2CC2)n1` [GW708336X] as the compound, how does the ΔTm at 10 µM read?
Answer: 2.8 °C

Question: With `Clc1ccc(CNc2nccc(-c3cnn4ncccc34)n2)cc1` [GW781673X] as the compound, how does the ΔTm at 10 µM read?
Answer: 2.27 °C
